Measured values reported in PubChem BioAssay AID248 (DTP/NCI, 2004).
Where “and” joins values, the source holds several entries; their conditions need not be identical. Equal values may be shown once. Inconclusive results and toxic doses are left out. Cut-off read from the data, not from the text of the source: active = T/C of 150% or more; inactive = T/C below 125%.

System: L1210 leukemia ip in BDF1 mice, survival T/C
Test: NCI In Vivo Anticancer Drug Screen. Data for tumor model L1210 Leukemia (intraperitoneal) in B6D2F1 (BDF1) mice
Conditions: endpoint: mean survival time, higher = longer survival
How it was run: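 In this screen, tumor-bearing mice given compound are compared to those given vehicle, and their survival values are reported as a treated-to-control quotient.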

[1] = dose: 100.0 mg/kg/injection, schedule: Q04DX003 (ip), vehicle: Klucel (hydroxypropylcellulose) (HPC)
[2] = dose: 200.0 mg/kg/injection, schedule: Q04DX003 (ip), vehicle: Klucel (hydroxypropylcellulose) (HPC)
[3] = dose: 400.0 mg/kg/injection, schedule: Q04DX003 (ip), vehicle: Klucel (hydroxypropylcellulose) (HPC)
[4] = dose: 100.0 mg/kg/injection, schedule: Q04DX003 (ip), vehicle: other
[5] = dose: 200.0 mg/kg/injection, schedule: Q04DX003 (ip), vehicle: other
[6] = dose: 400.0 mg/kg/injection, schedule: Q04DX003 (ip), vehicle: other
[7] = dose: 100.0 mg/kg/injection, schedule: Q01DX009 (ip), vehicle: Klucel (hydroxypropylcellulose) (HPC)
[8] = dose: 200.0 mg/kg/injection, schedule: Q01DX009 (ip), vehicle: Klucel (hydroxypropylcellulose) (HPC)
[9] = dose: 400.0 mg/kg/injection, schedule: Q01DX009 (ip), vehicle: Klucel (hydroxypropylcellulose) (HPC)
[10] = dose: 100.0 mg/kg/injection, schedule: Q01DX001 (ip), vehicle: saline
[11] = dose: 200.0 mg/kg/injection, schedule: Q01DX001 (ip), vehicle: saline
[12] = dose: 400.0 mg/kg/injection, schedule: Q01DX001 (ip), vehicle: saline
[13] = dose: 100.0 mg/kg/injection, schedule: Q01DX001 (ip), vehicle: Klucel (hydroxypropylcellulose) (HPC)
[14] = dose: 200.0 mg/kg/injection, schedule: Q01DX001 (ip), vehicle: Klucel (hydroxypropylcellulose) (HPC)
[15] = dose: 100.0 mg/kg/injection, schedule: Q01DX001 (ip), vehicle: carboxymethylcellulose (CMC)
[16] = dose: 200.0 mg/kg/injection, schedule: Q01DX001 (ip), vehicle: carboxymethylcellulose (CMC)
[17] = dose: 400.0 mg/kg/injection, schedule: Q01DX001 (ip), vehicle: carboxymethylcellulose (CMC)

Measured: T/C

O=C(CCC(C(=O)c1ccccc1)c1ccccc1)c1ccc(-c2ccccc2)cc1 (stereo not given)
inactive: dose: 87.5 mg/kg/injection, schedule: Q01DX009 (ip), vehicle: Klucel (hydroxypropylcellulose) (HPC) 94 % of control

O=C(Nc1cccc(C2=NCCN2)c1)Nc1cccc(C2=NCCN2)c1
inactive: dose: 6.0 mg/kg/injection, schedule: Q01DX Z (ip), vehicle: water 104 % of control | dose: 12.0 mg/kg/injection, schedule: Q01DX Z (ip), vehicle: water 101 % of control | dose: 25.0 mg/kg/injection, schedule: Q01DX Z (ip), vehicle: water 97 % of control

C/C(O)=C/c1cc(N2CCCCC2)nc(=S)[nH]1
inactive: [1] 102 % of control | [2] 100 % of control | [3] 100 % of control

COc1cc2c(cc1OC(C)=O)C(=O)CCC=C2
inactive: dose: 100.0 mg/kg/injection, schedule: Q01DX009 (ip), vehicle: saline 113 % of control | [4] 110 % of control | dose: 200.0 mg/kg/injection, schedule: Q01DX009 (ip), vehicle: saline 103 % of control | [5] 115 % of control | dose: 400.0 mg/kg/injection, schedule: Q01DX009 (ip), vehicle: saline 95 % of control | [6] 103 % of control

O=C(N/N=C/c1ccc([N+](=O)[O-])s1)c1ccccc1O
inactive: dose: 100.0 mg/kg/injection, schedule: Q04DX003 (ip), vehicle: saline 94 % of control | dose: 200.0 mg/kg/injection, schedule: Q04DX003 (ip), vehicle: saline 100 % of control | dose: 400.0 mg/kg/injection, schedule: Q04DX003 (ip), vehicle: saline 97 % of control

O=C(O)CCSCCSCCC(=O)O
inactive: [7] 95 % of control | [8] 90 % of control | [9] 100 % of control

COc1ccc(S(=O)(=O)O)cc1NC(=O)CC(=O)c1cccc([N+](=O)[O-])c1
inactive: [10] 97 % of control | [11] 95 % of control | [12] 100 % of control

Cc1ccc(S(=O)(=O)NN=C(/C=C/c2ccccc2)/C=C/c2ccccc2)cc1
inactive: dose: 50.0 mg/kg/injection, schedule: Q01DX001 (ip), vehicle: Klucel (hydroxypropylcellulose) (HPC) 102 % of control | [13] 107 % of control | [14] 103 % of control

CCC1([N+](=O)[O-])COP(=O)(OC(=O)c2ccccc2)OC1 (stereo not given)
inactive: [10] 100 % of control | [11] 108 % of control | [12] 97 % of control

CN(C)C(=S)SCc1c(Cl)c(Cl)c(Cl)c(Cl)c1Cl
inactive: [1] 105 % of control | [2] 100 % of control | [3] 94 % of control

COC(=O)C1C2CC3OC(=O)C1(C)C3C2 (stereo not given)
inactive: [10] 103 % of control | [11] 98 % of control | [12] 97 % of control

CCCCCCCCC(O)CCCCC (stereo not given)
inactive: [7] 100 % of control | [1] 106 % of control | [8] 98 % of control | [2] 103 % of control | [9] 94 % of control | [3] 109 % of control

O=C1c2cc(Cl)ccc2-c2c(NC(=O)C(Cl)Cl)cc(Cl)cc21
inactive: [15] 91 % of control | [16] 93 % of control | [17] 96 % of control

Cc1ccc(S(=O)(=O)OC23CCC(C)(CC2)C(=O)C3)cc1
inactive: dose: 100.0 mg/kg/injection, schedule: Q04DX002 (ip), vehicle: saline 91 % of control | dose: 200.0 mg/kg/injection, schedule: Q04DX002 (ip), vehicle: saline 102 % of control | dose: 400.0 mg/kg/injection, schedule: Q04DX002 (ip), vehicle: saline 91 % of control

COc1ccccc1NS(=O)(=O)c1ccccc1
inactive: [15] 92 % of control | [16] 103 % of control | [17] 103 % of control

NC(N)=Nc1cccc(OCCCOc2ccccc2)c1
inactive: dose: 150.0 mg/kg/injection, schedule: Q01DX001 (ip), vehicle: saline with Tween-80 88 % of control | dose: 300.0 mg/kg/injection, schedule: Q01DX001 (ip), vehicle: saline with Tween-80 94 % of control

CCCCCCCCCCCCCCCCN(C(=S)NC(=O)c1ccccc1)c1ccccc1
inactive: [13] 96 % of control | [1] 97 % of control | [14] 86 % of control | [2] 89 % of control | dose: 400.0 mg/kg/injection, schedule: Q01DX001 (ip), vehicle: Klucel (hydroxypropylcellulose) (HPC) 92 % of control | [3] 95 % of control

Cc1c(Cl)c(C)c(Sc2c(C)c(Cl)c(C)c(Br)c2O)c(O)c1Br
inactive: dose: 100.0 mg/kg/injection, schedule: Q01DX001 (ip), vehicle: other 87 % of control | [4] 100 % of control | dose: 200.0 mg/kg/injection, schedule: Q01DX001 (ip), vehicle: other 88 % of control | [5] 107 % of control | dose: 400.0 mg/kg/injection, schedule: Q01DX001 (ip), vehicle: other 93 % of control | [6] 113 % of control

O=C(c1ccccc1)C(Br)C(Br)C(=O)c1ccccc1 (stereo not given)
inactive: [15] 107 % of control | [7] 93 % of control | [1] 91 % of control | [16] 96 % of control | [8] 101 % of control | [2] 88 % of control | [17] 107 % of control | [9] 91 % of control | [3] 90 % of control

CCCCCCCCCCCC(=O)NC(CCC(=O)O)C(=O)O (stereo not given)
inactive: [10] 111 % of control | [11] 103 % of control | [12] 105 % of control

COc1cc(C=Nc2ccc(-n3ccnc3C)cc2)ccc1N(CCCl)CCCl
inactive: dose: 1.0 mg/kg/injection, schedule: Q01DX009 (ip), vehicle: Klucel (hydroxypropylcellulose) (HPC) 110 % of control | dose: 2.0 mg/kg/injection, schedule: Q01DX009 (ip), vehicle: Klucel (hydroxypropylcellulose) (HPC) 114 % of control | dose: 2.5 mg/kg/injection, schedule: Q01DX009 (ip), vehicle: Klucel (hydroxypropylcellulose) (HPC) 104 % of control and 106 % of control | dose: 3.8 mg/kg/injection, schedule: Q01DX009 (ip), vehicle: Klucel (hydroxypropylcellulose) (HPC) 104 % of control | dose: 5.0 mg/kg/injection, schedule: Q01DX009 (ip), vehicle: Klucel (hydroxypropylcellulose) (HPC) 114 % of control | dose: 8.8 mg/kg/injection, schedule: Q04DX003 (ip), vehicle: Klucel (hydroxypropylcellulose) (HPC) 98 % of control and 123 % of control | dose: 19.0 mg/kg/injection, schedule: Q01DX009 (ip), vehicle: Klucel (hydroxypropylcellulose) (HPC) 110 % of control | dose: 20.0 mg/kg/injection, schedule: Q01DX009 (ip), vehicle: Klucel (hydroxypropylcellulose) (HPC) 124 % of control | dose: 29.0 mg/kg/injection, schedule: Q04DX003 (ip), vehicle: Klucel (hydroxypropylcellulose) (HPC) 102 % of control | dose: 30.0 mg/kg/injection, schedule: Q04DX003 (ip), vehicle: Klucel (hydroxypropylcellulose) (HPC) 104 % of control

CCOC(=O)CCCCCC(C)=O
inactive: dose: 100.0 mg/kg/injection, schedule: Q04DX003 (ip), vehicle: acetone 103 % of control | dose: 200.0 mg/kg/injection, schedule: Q04DX003 (ip), vehicle: acetone 100 % of control | dose: 400.0 mg/kg/injection, schedule: Q04DX003 (ip), vehicle: acetone 95 % of control

Oc1ccc(O)c2[nH]c(-c3ccccc3)cc12
inactive: dose: 6.25 mg/kg/injection, schedule: Q04DX002 (ip), vehicle: saline with Tween-80 97 % of control | dose: 12.5 mg/kg/injection, schedule: Q04DX002 (ip), vehicle: saline with Tween-80 97 % of control
